Data from US10118892B2, “Compounds and their synthesis” (UCL BUSINESS PLC, priority 2012, dated 2018).

Experiments:
[1] = Biodistribution studies: blood and brain uptake of radiotracer over time; format: in vivo, Balb/C or FVB mice; settings: mice
Description: (§1) A series of radiolabelled tracers was prepared using the reported chemistry and investigated in vivo (Balb/C or FVB mice) by biodistribution studies and/or metabolite analysis. Examples in FIGS. 7-10 highlight the versatility of the reported chemistry that allows for tracers with a variety of backbone structures and side chains. By deliberately modifying chemical moieties the tracer can be fine-tuned towards up-take in tissues of interest, e.g. brain, heart or lungs. FIGS. 11-15 show the results of the in vivo investigation of a potential pro-drug tracer that was developed to monitor the efflux pump P-glycoprotein at the blood-brain barrier.
Female Balb/C mice and FVB mice were obtained from Charles River UK. When used, they were eight to eleven weeks old and weighing approximately 20 g. […]
(§2) The respective radiotracer (0.5-1 MBq formulated in a saline solution containing 5% ethanol) was administered intravenously into the tail vein. […] The organs of interest (blood, colon, stomach, spleen, kidneys, liver, heart, lungs, tail, femur, skull, and brain) were sampled, weighed, and the radioactivity content was measured by automated gamma counting (Cobra Multi Gamma Model 5010-Packard, UK). Results were normalised to the radioactivity found in 1% of the injected dose per gram bodyweight. All experiments were performed in duplicates or triplicates and analysed using Microsoft Office Excel 2007.

[2] = target: T1, P-glycoprotein at the blood-brain barrier (Mus musculus, UniProt P21447); assay: Biodistribution with P-glycoprotein activity inhibited by concomitant tariquidar (TQD); format: in vivo, Balb/C or FVB mice; settings: mice, with and without TQD (FIG. 15)
T1 construct: investigated in vivo (Balb/C or FVB mice) by biodistribution studies and/or metabolite analysis; tissue Charles River UK; host or cells: living Balb/C or FVB mice; blood-brain barrier / brain
Description: as §1, with “barrier. […]” for “barrier.”
as §2
Brains were homogenised in saline (0.5 ml) and ethanol (0.5 ml). […] The flow rate was 1 ml/min and the UV absorbance detector was set at 254 nm. […]

T1 sequence (P21447 whole entry): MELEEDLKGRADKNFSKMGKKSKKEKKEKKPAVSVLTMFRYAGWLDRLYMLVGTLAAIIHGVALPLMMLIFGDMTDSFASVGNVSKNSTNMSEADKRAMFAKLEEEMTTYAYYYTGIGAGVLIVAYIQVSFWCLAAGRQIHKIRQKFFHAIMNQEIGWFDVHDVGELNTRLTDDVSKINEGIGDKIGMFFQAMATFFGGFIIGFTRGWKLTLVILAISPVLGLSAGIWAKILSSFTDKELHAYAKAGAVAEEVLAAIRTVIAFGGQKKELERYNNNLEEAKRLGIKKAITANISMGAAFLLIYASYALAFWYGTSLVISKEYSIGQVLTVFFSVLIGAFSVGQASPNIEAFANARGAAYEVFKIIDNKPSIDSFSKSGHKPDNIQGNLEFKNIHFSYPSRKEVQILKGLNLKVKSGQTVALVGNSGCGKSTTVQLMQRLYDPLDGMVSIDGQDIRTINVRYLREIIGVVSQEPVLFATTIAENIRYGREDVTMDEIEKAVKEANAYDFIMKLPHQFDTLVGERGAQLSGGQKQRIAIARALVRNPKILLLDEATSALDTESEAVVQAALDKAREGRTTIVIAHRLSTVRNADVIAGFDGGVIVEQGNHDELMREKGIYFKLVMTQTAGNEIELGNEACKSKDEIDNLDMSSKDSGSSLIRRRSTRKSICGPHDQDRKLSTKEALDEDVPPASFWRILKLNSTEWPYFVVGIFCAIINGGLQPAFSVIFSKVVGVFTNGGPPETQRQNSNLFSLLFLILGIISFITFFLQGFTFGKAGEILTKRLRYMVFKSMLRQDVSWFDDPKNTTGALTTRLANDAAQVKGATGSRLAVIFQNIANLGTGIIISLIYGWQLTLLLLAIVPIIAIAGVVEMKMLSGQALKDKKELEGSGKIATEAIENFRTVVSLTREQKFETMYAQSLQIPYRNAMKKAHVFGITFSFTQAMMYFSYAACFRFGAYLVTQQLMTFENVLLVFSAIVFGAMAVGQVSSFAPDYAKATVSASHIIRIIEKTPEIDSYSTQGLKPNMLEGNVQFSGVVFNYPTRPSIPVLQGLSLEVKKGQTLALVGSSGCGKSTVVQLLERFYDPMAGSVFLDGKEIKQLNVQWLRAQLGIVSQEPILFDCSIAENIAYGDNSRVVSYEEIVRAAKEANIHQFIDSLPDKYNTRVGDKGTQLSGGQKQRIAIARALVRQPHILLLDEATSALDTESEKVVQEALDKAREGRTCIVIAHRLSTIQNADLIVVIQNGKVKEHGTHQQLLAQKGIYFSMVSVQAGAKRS

Structure (SMILES): OCCCCN1CCC(=C(c2ccccc2)c2ccc(F)cc2)CC1 [Compound [^18F]6]
- brain uptake ([1]; intravenous into tail vein, uptake over time (FIG. 15)): high brain uptake
- brain to blood ratio ([1]; intravenous, FIG. 15, suitable for nuclear imaging): good brain to blood ratio
- wash-out of tracer from the brain by P-glycoprotein [2]: consistently washed out of the brain by P-glycoprotein
